Where “and” joins values, the source holds several entries; their conditions need not be identical. Equal entries are not always repeated.

As a reminder, the IC50 is the concentration that inhibits the measured activity by half.

The target of the first assay is T1, gamma secretase (Mus musculus, UniProt P49769).
T1 construct: host or cells: brain of PDAPP transgenic mice (in vivo)
Test: not given
Conditions: PDAPP mice, acute inhibition, in-vivo; cited from earlier work.
Regarding `C[C@H](NC(=O)Cc1cc(F)cc(F)c1)C(=O)N[C@H](C(=O)OC(C)(C)C)c1ccccc1` [DAPT], the “Aβ in the brain” value is “reduction of Aβ in the brain”.

The target in the next assay is T2, gamma-secretase (Homo sapiens, UniProt P49768).
T2 construct: partially purified extract of IMR-32 cell membranes as the gamma-secretase enzyme preparation; endogenous in cells; host or cells: IMR-32 cell membranes (partially purified extract)
Nature of the assay: Gamma-secretase APP enzyme assay. Conditions: cleavage of MBP-C125 Swe substrate at the Aβ40 site; partially purified extract of IMR-32 cell membranes; ELISA. Format: biochemical. Put shortly: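 IMR-32 membrane extract (25 Units) was preincubated with inhibitor for 30 min at 37 °C, then MBP-C125swe substrate (0.05 mg/ml) was added for 2 h at 37 °C in Hepes/NaCl with BigCHAPS and brain lipid (0.53 mg/ml). Reaction stopped with 0.1% SDS. Aβ40 neo-epitope product captured overnight at 4 °C and quantified by sandwich ELISA against a six-point standard curve.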
(An ELISA detects its analyte on a solid surface through an enzyme-linked reagent.)
On to `O=S(=O)(c1ccc(C(F)(F)F)cc1)N1c2cc(F)c(F)cc2-c2[nH]ncc2C1c1cccnc1` (stereo not shown) [7,8-difluoro-4-(pyridin-3-yl)-5-(4-(trifluoromethyl)phenylsulfonyl)-4,5-dihydro-1H-pyrazolo[4,3-c]quinoline], for which the IC50 lay in the range of 0.1 to 100 nM. `CC(C)C1c2c[nH]nc2-c2cc(F)c(F)cc2N1S(=O)(=O)c1ccc(C(F)(F)F)cc1` (stereo not shown) [7,8-difluoro-4-isopropyl-5-(4-(trifluoromethyl)phenylsulfonyl)-4,5-dihydro-2H-pyrazolo[4,3-c]quinoline]: the IC50 is 0.1 to 100 nM.

In turn, `CC1c2c[nH]nc2-c2cc(F)c(F)cc2N1S(=O)(=O)c1cccs1` (stereo not shown) [7,8-difluoro-4-methyl-5-(thiophen-2-ylsulfonyl)-4,5-dihydro-2H-pyrazolo[4,3-c]quinoline] showed an IC50 of 0.1 to 100 nM.

Turning to `O=S(=O)(c1ccc(C(F)(F)F)cc1)N1Cc2c[nH]nc2-c2cc(F)c(F)cc21` [7,8-difluoro-5-(4-(trifluoromethyl)phenylsulfonyl)-4,5-dihydro-2H-pyrazolo[4,3-c]quinoline], the IC50 lay within 0.1 to 100 nM. Turning to `CC1c2c[nH]nc2-c2cc(Cl)sc2N1S(=O)(=O)c1ccc(C(F)(F)F)cc1` (stereo not shown) [7-chloro-4-methyl-5-(4-(trifluoromethyl)phenylsulfonyl)-4,5-dihydro-1H-pyrazolo[3,4-d]thieno[2,3-b]pyridine], the IC50 fell in the range of 0.1 to 100 nM. `O=S(=O)(c1ccc(Cl)cc1)N1Cc2c[nH]nc2-c2cc(Cl)ccc21` [8-chloro-5-[(4-chlorophenyl)sulfonyl]-4,5-dihydro-2H-pyrazolo[4,3-c]quinoline]: the IC50 is 501 to 1000 nM. In turn, `CC1c2c[nH]nc2-c2cc(F)ccc2N1S(=O)(=O)c1cn(C)cn1` (stereo not shown) [8-fluoro-4-methyl-5-(1-methyl-1H-imidazol-4-ylsulfonyl)-4,5-dihydro-1H-pyrazolo[4,3-c]quinoline] gave an IC50 of 1000 to 10000 nM. In the case of `CC1c2c[nH]nc2-c2cc(F)ccc2N1S(=O)(=O)c1cnn(C)c1` (stereo not shown) [8-fluoro-4-methyl-5-(1-methyl-1H-pyrazol-4-ylsulfonyl)-4,5-dihydro-1H-pyrazolo[4,3-c]quinoline], the concentration for half-maximal inhibition (IC50) lay in the range of 101 to 500 nM. Compound `CC1c2cn[nH]c2-c2cc(F)ccc2N1S(=O)(=O)c1ccc(-c2ccccn2)s1` (stereo not shown) [8-fluoro-4-methyl-5-(5-(pyridin-2-yl)thiophen-2-ylsulfonyl)-4,5-dihydro-1H-pyrazolo[4,3-c]quinoline] displayed an IC50 of 1000 to 10000 nM. The same measure, in the same setting: the figure for `CC1c2cn[nH]c2-c2cc(F)ccc2N1S(=O)(=O)c1ccccn1` (stereo not shown) [8-fluoro-4-methyl-5-(pyridin-2-ylsulfonyl)-4,5-dihydro-1H-pyrazolo[4,3-c]quinoline] is 101 to 500 nM and 0.1 to 100 nM; for `CC1c2cn[nH]c2-c2cc(F)ccc2N1S(=O)(=O)c1ccc(F)cc1` (stereo not shown) [8-fluoro-5-(4-fluorophenylsulfonyl)-4-methyl-4,5-dihydro-1H-pyrazolo[4,3-c]quinoline] it is 0.1 to 100 nM. `Nc1ccc(S(=O)(=O)N2c3cc(F)c(F)cc3-c3[nH]ncc3[C@H]2C2CC2)cc1` [(R)-4-(4-cyclopropyl-7,8-difluoro-1H-pyrazolo[4,3-c]quinolin-5(4H)-ylsulfonyl)aniline] displayed an IC50 of 0.1 to 100 nM. `O=S(=O)(c1ccc(OC(F)F)cc1)N1c2cc(F)c(F)cc2-c2[nH]ncc2[C@H]1C1CC1` [(R)-4-cyclopropyl-5-(4-(difluoromethoxy)phenylsulfonyl)-7,8-difluoro-4,5-dihydro-1H-pyrazolo[4,3-c]quinoline] displayed a concentration for half-maximal inhibition (IC50) of 0.1 to 100 nM. Regarding `O=[N+]([O-])c1ccc(S(=O)(=O)N2c3cc(F)c(F)cc3-c3[nH]ncc3[C@H]2C2CC2)cc1` [(R)-4-cyclopropyl-7,8-difluoro-5-(4-nitrophenylsulfonyl)-4,5-dihydro-1H-pyrazolo[4,3-c]quinoline], the IC50 fell in the range of 0.1 to 100 nM.

In turn, `O=S(=O)(c1ccc(OC(F)(F)F)cc1)N1c2cc(OC(F)(F)F)ccc2-c2n[nH]cc2[C@H]1C1CC1` [(R)-4-cyclopropyl-7-(trifluoromethoxy)-5-(4-(trifluoromethoxy)phenylsulfonyl)-4,5-dihydro-2H-pyrazolo[4,3-c]quinoline] returned a concentration for half-maximal inhibition (IC50) of 0.1 to 100 nM. Regarding `O=S(=O)(c1ccc(C(F)(F)F)nc1)N1c2cc(OC(F)(F)F)ccc2-c2n[nH]cc2[C@H]1C1CC1` [(R)-4-cyclopropyl-7-(trifluoromethoxy)-5-(6-(trifluoromethyl)pyridin-3-ylsulfonyl)-4,5-dihydro-2H-pyrazolo[4,3-c]quinoline], the IC50 lay within 0.1 to 100 nM. For the compound `O=S(=O)(c1ccc(C(F)(F)F)nc1)N1c2cc(C(F)(F)F)ccc2-c2[nH]ncc2[C@H]1C1CC1` [(R)-4-cyclopropyl-7-(trifluoromethyl)-5-(6-(trifluoromethyl)pyridin-3-ylsulfonyl-4,5-dihydro-1H-pyrazolo[4,3-c]quinoline], the IC50 was 0.1 to 100 nM. Compound `O=S(=O)(c1ccc(C(F)(F)F)nc1)N1c2ccc(C(F)(F)F)cc2-c2[nH]ncc2[C@H]1C1CC1` [(R)-4-cyclopropyl-8-(trifluoromethyl)-5-(6-(trifluoromethyl)pyridin-3-ylsulfonyl)-4,5-dihydro-1H-pyrazolo[4,3-c]quinoline] returned an IC50 of 0.1 to 100 nM.

`O=S(=O)(c1ccc(OC(F)(F)F)cc1)N1c2ccc(F)cc2-c2[nH]ncc2[C@H]1C1CC1` [(R)-4-cyclopropyl-8-fluoro-5-(4-(trifluoromethoxy)phenylsulfonyl)-4,5-dihydro-1H-pyrazolo[4,3-c]quinoline]: the half-inhibitory concentration (IC50) was 0.1 to 100 nM. Compound `COc1ccc(S(=O)(=O)N2c3ccc(F)cc3-c3[nH]ncc3[C@H]2C2CC2)cc1` [(R)-4-cyclopropyl-8-fluoro-5-(4-methoxyphenylsulfonyl)-4,5-dihydro-1H-pyrazolo[4,3-c]quinoline] yielded a half-inhibitory concentration (IC50) of 0.1 to 100 nM. `CC[C@@H]1c2cn[nH]c2-c2cc(F)c(F)cc2N1S(=O)(=O)c1ccc(C(F)(F)F)cc1` [(R)-4-ethyl-7,8-difluoro-5-(4-(trifluoromethyl)phenylsulfonyl)-4,5-dihydro-1H-pyrazolo[4,3-c]quinoline] yielded a half-inhibitory concentration (IC50) of 0.1 to 100 nM.

Values taken from US20080021056A1, “Fused, Tricyclic Sulfonamide Inhibitors of Gamma Secretase” (priority 2006, published 2008).
